As usually defined, the IC50 is the concentration that gives 50% inhibition.

Assay in all cases: In vitro MMP inhibition, IC50 determination (fluorogenic substrate I)
Common to all, as to type: biochemical

The target of one test is T1, Human recombinant MMP-1 (Homo sapiens, UniProt P03956).
T1 construct: made in house; host or cells: MMP-1-transfected HT-1080 cells (spent media)
T1 sequence (P03956 100-469): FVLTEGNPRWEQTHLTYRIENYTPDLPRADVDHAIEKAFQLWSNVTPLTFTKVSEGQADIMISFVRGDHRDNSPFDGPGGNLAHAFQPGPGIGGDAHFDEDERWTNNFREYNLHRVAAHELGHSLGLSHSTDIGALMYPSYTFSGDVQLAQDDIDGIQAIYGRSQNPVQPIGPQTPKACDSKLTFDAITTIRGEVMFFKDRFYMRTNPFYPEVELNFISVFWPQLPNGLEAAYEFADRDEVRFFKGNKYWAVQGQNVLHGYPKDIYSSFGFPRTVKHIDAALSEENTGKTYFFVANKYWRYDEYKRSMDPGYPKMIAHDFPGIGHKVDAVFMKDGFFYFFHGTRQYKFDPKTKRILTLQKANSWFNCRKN
The method in brief: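 APMA- or trypsin-activated enzyme, purified from spent media of transfected HT-1080 cells, incubated at room temperature with 4 μM MCA-Pro-Leu-Gly-Leu-Dpa-Ala-Arg-NH2 and graded inhibitor in Tris buffer pH 7.5 (10 mM CaCl2, 0.05% Brij). Cleavage read by fluorescence (ex 328/em 415 nm); IC50 from fluorescence reduction versus inhibitor concentration.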

The target in another test is T2, Human recombinant MMP-2 (Homo sapiens, UniProt P08253).
T2 construct: made in house; host or cells: MMP-2-transfected p2AHT2 cells
T2 sequence (P08253 110-660): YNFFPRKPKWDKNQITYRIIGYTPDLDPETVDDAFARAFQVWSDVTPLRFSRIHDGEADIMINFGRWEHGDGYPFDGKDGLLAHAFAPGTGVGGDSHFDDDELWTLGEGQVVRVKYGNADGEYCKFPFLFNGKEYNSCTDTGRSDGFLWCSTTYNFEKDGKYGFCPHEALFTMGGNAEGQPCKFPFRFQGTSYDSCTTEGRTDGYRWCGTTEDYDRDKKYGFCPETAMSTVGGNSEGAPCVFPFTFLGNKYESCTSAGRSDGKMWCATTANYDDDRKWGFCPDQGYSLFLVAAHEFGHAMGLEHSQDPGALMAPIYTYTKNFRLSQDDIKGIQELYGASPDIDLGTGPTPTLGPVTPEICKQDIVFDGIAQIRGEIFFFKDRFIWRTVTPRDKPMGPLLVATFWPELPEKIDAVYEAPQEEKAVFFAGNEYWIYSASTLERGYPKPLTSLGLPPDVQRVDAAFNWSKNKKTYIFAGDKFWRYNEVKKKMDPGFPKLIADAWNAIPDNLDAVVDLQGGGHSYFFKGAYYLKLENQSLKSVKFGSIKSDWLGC
The gist of the method: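 APMA- or trypsin-activated recombinant MMP-2 was incubated at room temperature with serial inhibitor dilutions in Tris buffer pH 7.5 (100 mM NaCl, 10 mM CaCl2, 0.05% Brij), with DMSO from 1% stocks, and 4 μM substrate I. Cleavage was read by fluorescence at 328/415 nm; IC50 was taken from the loss of fluorescence versus inhibitor concentration.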

Another test has as its target T3, Human recombinant MMP-9 (Homo sapiens, UniProt P14780).
T3 construct: made in house; host or cells: MMP-9-transfected HT1080 cells (spent media)
The gist of the method: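 MMP-9 proenzyme purified from transfected HT1080 cell media, activated with APMA or trypsin. Compound dilutions in pH 7.5 Tris/NaCl/CaCl2 buffer with 0.05% polyoxyethylene 23 lauryl ether, incubated at room temperature with 4 μM MCA/Dpa substrate I. IC50 from fluorescence loss (ex 328, em 415 nm) versus inhibitor concentration.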

The target in another test is T4, Human recombinant MMP-13 (Homo sapiens, UniProt P45452).
T4 construct: made in house; host or cells: baculovirus / insect cells
The gist of the method:
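Fluorescence at 415 nm (excitation 328 nm) reports Gly-Leu cleavage of 4 μM quenched methoxycoumarin peptide substrate I. Human recombinant MMP-13, activated by trypsin or APMA, was incubated at room temperature with varied inhibitor concentrations in pH 7.5 Tris/NaCl/CaCl2 buffer; IC50 derived from reduced fluorescence.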

Another test deals with T5, Human recombinant MMP-14 (Homo sapiens, UniProt P50281).
T5 construct: The catalytic domain enzyme was expressed in E. coli inclusion bodies, solubilized in urea; made in house
The gist of the method: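 Catalytic-domain MMP-14, expressed in E. coli and refolded, activated with APMA or trypsin; compounds incubated at room temperature with 4 μM fluorogenic substrate I (MCA-PLGL-Dpa-AR-NH2) in Tris/NaCl/CaCl2 buffer, pH 7.5. Fluorescence at ex 328/em 415 nm; IC50 from loss of fluorescence versus inhibitor concentration.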

[1] abbreviates: value outside parentheses (Ki in parenthesis).

T3 sequence (P14780 107-707 limits assumed): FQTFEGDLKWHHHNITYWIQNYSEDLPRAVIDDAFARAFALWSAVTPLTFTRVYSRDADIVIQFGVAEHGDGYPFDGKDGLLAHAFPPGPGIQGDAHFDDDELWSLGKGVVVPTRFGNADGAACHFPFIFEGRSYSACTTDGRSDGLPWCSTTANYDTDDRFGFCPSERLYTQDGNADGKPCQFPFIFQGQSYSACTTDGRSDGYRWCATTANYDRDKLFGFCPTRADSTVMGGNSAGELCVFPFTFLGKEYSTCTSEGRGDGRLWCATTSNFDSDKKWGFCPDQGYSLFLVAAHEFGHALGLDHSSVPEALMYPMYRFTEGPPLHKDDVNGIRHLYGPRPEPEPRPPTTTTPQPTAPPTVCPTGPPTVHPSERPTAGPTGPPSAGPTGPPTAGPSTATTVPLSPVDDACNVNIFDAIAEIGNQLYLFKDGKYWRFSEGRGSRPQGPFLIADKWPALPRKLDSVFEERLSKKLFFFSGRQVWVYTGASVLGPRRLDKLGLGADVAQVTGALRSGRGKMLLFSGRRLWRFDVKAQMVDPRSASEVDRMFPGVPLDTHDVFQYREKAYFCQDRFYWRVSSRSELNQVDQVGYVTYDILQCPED

As for `O=C(NCCCOc1ccc(S(=O)(=O)C2(C(=O)NO)CCOCC2)cc1)C12CC3CC(CC(C3)C1)C2` [Example 405], the half-maximal inhibitory concentration (IC50) on Human recombinant MMP-1 (setting [1]) is above 10000 nM; at Human recombinant MMP-2 (setting [1]) it was 2350 nM; at Human recombinant MMP-9 (setting [1]), above 10000 nM; at Human recombinant MMP-13 (setting [1]), 1.9 nM; on Human recombinant MMP-14 (setting [1]) it was above 10000 nM.
As for `CC(C)(COc1ccc(S(=O)(=O)C2(C(=O)NO)CCOCC2)cc1)CS(=O)(=O)Cc1cccc(OC(F)(F)F)c1` [Example 440], the IC50 at Human recombinant MMP-1 (setting [1]) was above 10000 nM; at Human recombinant MMP-2 (setting [1]), 4 nM; on Human recombinant MMP-9 (setting [1]) it was 140 nM; on Human recombinant MMP-13 (setting [1]) it was 1 nM; on Human recombinant MMP-14 (setting [1]), 2500 nM.
The corresponding values for `CC(C)(C)c1ccc(C(=O)CCCCOc2ccc(S(=O)(=O)C3(C(=O)NO)CCOCC3)cc2)cc1` [Example 327] are above 10000 nM, 50.7 nM, 5280 nM, 0.9 nM and above 10000 nM.
For `C[C@@H]1[C@H](c2ccccc2)OC(=O)N1CCCOc1ccc(S(=O)(=O)C2(C(=O)NO)CCOCC2)cc1` [Example 308], in that order: above 10000 nM, 176 nM, 1600 nM, 3.7 nM and above 10000 nM.
Consider `Cc1cc(C(=O)NCCCOc2ccc(S(=O)(=O)C3(C(=O)NO)CCOCC3)cc2)no1` [Example 386], for which the IC50 on Human recombinant MMP-1 (setting [1]) was above 10000 nM; on Human recombinant MMP-2 (setting [1]) it was 131 nM; on Human recombinant MMP-9 (setting [1]), 35.3 nM; on Human recombinant MMP-13 (setting [1]), 1.2 nM; at Human recombinant MMP-14 (setting [1]), 9720 nM.
As for `CCCCCc1ccc(-c2nnc(CCCOc3ccc(S(=O)(=O)C4(C(=O)NO)CCOCC4)cc3)o2)cc1` [Example 316], the IC50 on Human recombinant MMP-1 (setting [1]) was 2680 nM; on Human recombinant MMP-2 (setting [1]) it was 2840 nM; on Human recombinant MMP-9 (setting [1]) it was 692 nM; at Human recombinant MMP-13 (setting [1]), 13.6 nM; on Human recombinant MMP-14 (setting [1]), above 10000 nM.
Regarding `Cc1ccc(C(=O)NCCCOc2ccc(S(=O)(=O)C3(C(=O)NO)CCOCC3)cc2)cc1C` [Example 371], the half-maximal inhibitory concentration (IC50) is above 10000 nM at Human recombinant MMP-1 (setting [1]); 1100 nM on Human recombinant MMP-2 (setting [1]); 9600 nM on Human recombinant MMP-9 (setting [1]); 2.4 nM at Human recombinant MMP-13 (setting [1]); above 10000 nM at Human recombinant MMP-14 (setting [1]).
`O=C(NO)C1(S(=O)(=O)c2ccc(OCCSc3nc4c(Cl)cc(Cl)cc4o3)cc2)CCOCC1` [Example 409]: the IC50 at Human recombinant MMP-1 (setting [1]) is above 10000 nM; at Human recombinant MMP-2 (setting [1]), 23 nM; at Human recombinant MMP-9 (setting [1]) it was 160 nM; on Human recombinant MMP-13 (setting [1]), 1 nM; at Human recombinant MMP-14 (setting [1]) it was 5640 nM.
For `CN(C)c1ccc(/C=C/CCCOc2ccc(S(=O)(=O)C3(C(=O)NO)CCOCC3)cc2)cc1` [Example 486], in that order: above 10000 nM, 106 nM, 255 nM, 4.6 nM and above 10000 nM.
For `COC(C)(C)CCOc1ccc(S(=O)(=O)C2(C(=O)NO)CCOCC2)cc1` [Example 473], in that order: above 10000 nM, 5 nM, 45 nM, 5 nM and 600 nM.
For `O=C(NO)C1(S(=O)(=O)c2ccc(OCCCSCc3cccc(OC(F)(F)F)c3)cc2)CCOCC1` [Example 441], in that order: 9000 nM, 13 nM, 110 nM, 2 nM and 2290 nM.
On to `CN(CCCOc1ccc(S(=O)(=O)C2(C(=O)NO)CCOCC2)cc1)C(=O)c1ccc2ccccc2c1` [Example 289], for which the IC50 is above 10000 nM at Human recombinant MMP-1 (value outside parenthesis); 2720 nM at Human recombinant MMP-2 (value outside parenthesis); above 10000 nM at Human recombinant MMP-9 (value outside parenthesis); 10.1 nM on Human recombinant MMP-13 (value outside parenthesis); above 10000 nM on Human recombinant MMP-14 (value outside parenthesis).
With `O=C1CN(c2ccc(OC(F)(F)F)cc2)C(=O)N1CCCOc1ccc(S(=O)(=O)C2(C(=O)NO)CCOCC2)cc1` [Example 144], the IC50 at Human recombinant MMP-1 (value outside parenthesis) is above 10000 nM; on Human recombinant MMP-2 (value outside parenthesis), 239 nM; at Human recombinant MMP-9 (value outside parenthesis), 5990 nM; at Human recombinant MMP-13 (value outside parenthesis), 2.5 nM; on Human recombinant MMP-14 (value outside parenthesis), above 10000 nM.
For `COc1ccc(C(=O)CCCOc2ccc(S(=O)(=O)C3(C(=O)NO)CCOCC3)cc2)cc1` [Example 491], the IC50 is 7310 nM at Human recombinant MMP-1 (value outside parentheses); 6.8 nM at Human recombinant MMP-2 (value outside parentheses); 94.2 nM at Human recombinant MMP-9 (value outside parentheses); 0.8 nM on Human recombinant MMP-13 (value outside parentheses); 981 nM on Human recombinant MMP-14 (value outside parentheses).
Consider `C[C@@H]1C(=O)N(CCCOc2ccc(S(=O)(=O)C3(C(=O)NO)CCOCC3)cc2)C(=O)N1c1ccccc1` [Example 145], for which the IC50 at Human recombinant MMP-1 (value outside parenthesis) was above 10000 nM; on Human recombinant MMP-2 (value outside parenthesis), 817 nM; at Human recombinant MMP-9 (value outside parenthesis) it was 9440 nM; at Human recombinant MMP-13 (value outside parenthesis), 2 nM; at Human recombinant MMP-14 (value outside parenthesis), above 10000 nM.
Take `O=C(NO)C1(S(=O)(=O)c2ccc(OCCCc3cc(-c4ccc(F)c(F)c4)cs3)cc2)CCOCC1` [Example 580]: the IC50 on Human recombinant MMP-1 (value outside parentheses) was above 10000 nM; at Human recombinant MMP-2 (value outside parentheses), 136 nM; on Human recombinant MMP-9 (value outside parentheses), 417 nM; on Human recombinant MMP-13 (value outside parentheses) it was 0.6 nM; at Human recombinant MMP-14 (value outside parentheses), above 10000 nM.
As for `O=C(CCCOc1ccc(S(=O)(=O)C2(C(=O)NO)CCOCC2)cc1)c1ccccc1` [Example 492], the half-inhibitory concentration (IC50) on Human recombinant MMP-1 (value outside parentheses) worked out at 3550 nM; at Human recombinant MMP-2 (value outside parentheses), 3.5 nM; on Human recombinant MMP-9 (value outside parentheses) it was 67.3 nM; at Human recombinant MMP-13 (value outside parentheses), 0.7 nM; on Human recombinant MMP-14 (value outside parentheses), 574 nM.
As to `CN(C)c1ccc(C(=O)NCCCOc2ccc(S(=O)(=O)C3(C(=O)NO)CCN(C4CC4)CC3)cc2)cc1` [Example 406], the IC50 at Human recombinant MMP-1 (setting [1]) was above 10000 nM; on Human recombinant MMP-2 (setting [1]), 2200 nM; at Human recombinant MMP-9 (setting [1]), above 10000 nM; at Human recombinant MMP-13 (setting [1]), 4 nM; on Human recombinant MMP-14 (setting [1]), above 10000 nM.
Regarding `O=C(NO)C1(S(=O)(=O)c2ccc(OCC3Cc4cc(Oc5ccccc5)ccc4O3)cc2)CCOCC1` (centres unmarked) [Example 664], the IC50 was above 10000 nM on Human recombinant MMP-1 (value outside parentheses); 19.8 nM at Human recombinant MMP-2 (value outside parentheses); 430 nM on Human recombinant MMP-9 (value outside parentheses); 1.02 nM on Human recombinant MMP-13 (value outside parentheses); 2650 nM on Human recombinant MMP-14 (value outside parentheses).
With `CCCc1ccc(-c2nc(CCCOc3ccc(S(=O)(=O)C4(C(=O)NO)CCOCC4)cc3)oc2C)cc1` [Example 207], the IC50 at Human recombinant MMP-1 (value outside parenthesis) was above 10000 nM; on Human recombinant MMP-2 (value outside parenthesis), 114 nM; on Human recombinant MMP-9 (value outside parenthesis) it was 127 nM; at Human recombinant MMP-13 (value outside parenthesis), 3.7 nM; on Human recombinant MMP-14 (value outside parenthesis) it was above 10000 nM.
`CC(C)c1ccc(-c2nnc(CCCOc3ccc(S(=O)(=O)C4(C(=O)NO)CCOCC4)cc3)o2)cc1` [Example 247]: the IC50 was 3610 nM at Human recombinant MMP-1 (value outside parenthesis); 445 nM on Human recombinant MMP-2 (value outside parenthesis); 341 nM on Human recombinant MMP-9 (value outside parenthesis); 1.1 nM at Human recombinant MMP-13 (value outside parenthesis); above 10000 nM on Human recombinant MMP-14 (value outside parenthesis).
Turning to `N#Cc1ccc(N2CCN(CCCOc3ccc(S(=O)(=O)C4(C(=O)NO)CCOCC4)cc3)C2=O)cc1` [Example 307], the concentration for half-maximal inhibition (IC50) is 8130 nM on Human recombinant MMP-1 (setting [1]); 135 nM on Human recombinant MMP-2 (setting [1]); 139 nM at Human recombinant MMP-9 (setting [1]); 4.5 nM at Human recombinant MMP-13 (setting [1]); above 10000 nM on Human recombinant MMP-14 (setting [1]).

These data come from patent US20040024024A1, “Aromatic sulfone hydroxamates and their use as protease inhibitors” (priority 2001, published 2004).
